# Results from patent publication US10973912B2, “Treatment for myopathy” (Children's Medical Center Corporation, priority 2015, dated 2021).
# Legend:
# wild-type mouse myotubes = test: Calcium imaging, caffeine dose response of depolarization-induced calcium release; type: cell-based, mouse (C57BL/6N); settings: wild-type background, cultured 5 days with compound
# Experimental: (§1) Tetanic forces were measured following stimulation with 9 biphasic, 200 μs square-wave pulses at 300 Hz (WT-DMSO: 45.6±4.2 kPa, n=5; WT-NIF: 52.8±4.1 kPa, n=5; ryr1b-DMSO: 11.4±1.3 kPa, n=7; ryr1b-NIF: 25.4±4.0 kPa, n=7). Significance was determined by a one-way ANOVA (F=29.61, P<0.0001), followed by pairwise Tukey's HSD post hoc tests. […] Non-linear regression data of curves were not statistically different, as determined by an extra sum-of-squares F test (P=1.0).
# Primary myoblasts from C57BL/6N mice were isolated and differentiated as described previously^39. Calcium imaging was performed 5 days after differentiation in myotubes loaded with 3 μM Fluo-4-AM (Life Technologies). Myotubes were imaged in imaging buffer (125 mM NaCl, 5 mM KCl, 2 mM CaCl2, 1.2 mM MgSO4, 6 mM glucose, 2 mM Ca^2+, 25 mM Hepes/Tris, pH 7.4) at 490-500 nm with a Stanford Photonics 10 bit digital intensified CCD using a DG4 multi-wavelength light source. Fluorescent emission at 510 was acquired and analyzed using QED Imaging software (QED Software, Pittsburgh, Pa., USA) from regions of interest within each myotube at 30 frames per second. Sensitivity to K^+-depolarization and caffeine-activation were determined by a 5 second perfusion with 5-6 volumes of KCl (10 mM to 60 mM) or caffeine (3 mM to 40 mM). […]
# [1] = system: ryr1b homozygous mutant zebrafish; type: in vivo, zebrafish (Danio rerio)
# Experimental: In two independent experiments, two pools of 20 larvae from heterozygous ryr1b matings were treated with DMSO or with one of three different concentrations of NIF (1.0-100.0 μg/mL) at 1 dpf and evaluated in terms of touch-evoked escape behaviors at 5 dpf (n=40). Following phenotypic scoring, all living embryos were genotyped using three-primer genomic PCR. Swimming scores for larvae genotype-confirmed as ryr1b homozygous mutants are shown as a percentage of the total number of living larvae in each dose category: 1=poor swimming; 2 or 3=moderate or wild-type swimming. NIF improved mobility of ryr1b mutants at a dose of 10 μg/mL. […] Phospho-Stat3 band intensities were normalized to β-Actin control bands and quantified in Image J (NIH).
# FIGS. 12A-12C show a ketoprofen dose-response and proposed mechanistic link. […] FIG. 12B is a dose-response graph for ketoprofen (KETO). Two pools of 20 larvae from heterozygous ryr1b matings were treated with DMSO or four different concentrations of KETO (1.0-100.0 μg/mL) at 1 dpf and evaluated in terms of touch-evoked escape behaviors at 5 dpf (n=40). Following phenotypic scoring, all living embryos were genotyped using three-primer genomic PCR. Swimming scores for larvae genotype-confirmed as ryr1b homozygous mutants are shown as a percentage of the total number of living larvae in each dose category: 1=poor swimming, 2 or 3=moderate or wild-type swimming. […] Phosphorylated STATs form dimers, translocate to nuclei, and from there are associated with various transcriptional activities. Dubowitz, V. and Sewry, C. (2006) Muscle Biopsy: A Practical Approach. Elsevier-Health Sciences Division.
# The relatively relaxed zebrafish was initially identified due to a spontaneous autosomal recessive mutation within the ryr1b gene^30. Specifically, ryr1b mutants carry a 4046 base pair (bp) DNA insertion in the intron between exons 48 and 49 that includes an additional 32 bp sequence found in mutant cDNA (FIG. 3)^30. Genotypes of individual embryos were examined using three-primer genomic PCR, with an expected wild-type band of 1,668 bp and a mutant band of 653 bp. Primer sequences were as follows: ryr1b #1 (forward): 5′-[…]-3′ (SEQ ID NO: 4); ryr1b #2 (reverse): 5′-[…]-3′ (SEQ ID NO: 5); and ryr1b #3 (reverse): 5′-[…]-3′ (SEQ ID NO: 6).
# The primary and secondary screens only tested chemical pools and individual compounds at a single concentration (2.0 μg/mL). Although beneficial in a high-throughput context, this approach can result in false positives and false negatives. […] For analysis, pools of 20 larvae obtained from heterozygous ryr1b matings were treated in duplicate with DMSO or with one of three different concentrations of NIF (1.0-100.0 μg/mL) at 1 dpf and scored for touch-evoked escape behaviors at 5 dpf. All scored larvae were then genotyped using three-primer genomic PCR. […] Next, hit expansion was used to verify JAK-STAT as a potential molecular pathway involved in ryr1b mutant pathology. […] A higher effective dose for 5,15-DPP was consistent with the IC50 measurements reported for each compound^40,41.
# ryr1b skeletal muscles = test: Tetanic force per cross-sectional area in larvae at 5 dpf; type: in vivo, zebrafish (Danio rerio); settings: WT, n=5, 9 biphasic 200 μs pulses at 300 Hz
# Experimental: as §1
# Ryr1b mutants display weaker muscle contractions than wild-type clutchmates as early as 2 dpf^30. To investigate whether […] affects contractile strength in zebrafish, ryr1b mutants and unaffected controls were treated with the compound for several days. At 5 dpf, electrophysiological studies were performed with the help of Dr. Jeffrey Widrick.
compound,measurement,setting,value
O=C(N/N=C/c1ccc([N+](=O)[O-])o1)c1ccc(O)cc1 [Nifuroxazide],calcium release in response to caffeine,wild-type mouse myotubes,only very modest increases in calcium release
same,dose that improved mobility of ryr1b mutants / optimal activity,"[1]; treated at 1 dpf, touch-evoked escape behaviors at 5 dpf, tested 1.0-100.0 μg/mL",10 µg/mL
same,touch-evoked escape behaviors / mobility of ryr1b mutants,"[1]; treated from 1 dpf, scored and genotyped at 5 dpf",ryr1b mutants were among larvae that exhibited wild-type touch-evoked escape behaviors
same,"tetanic force per cross-sectional area, wild-type larvae",ryr1b skeletal muscles,52.8±4.1 kPa
